Data reported in ChEMBL document CHEMBL4819037, “Phytochemical Profiling and Biological Activity of the Australian Carnivorous Plant, Drosera magna” (J Nat Prod, 2021).
Activity calls are given as the source filed them. No cut-off for these calls is given here.

Legend:
Haemonchus contortus [1] = assay: Anti-helmintic activity against third-stage xL3 Haemonchus contortus larvae assessed as inhibition of larvae motility at 100 uM measured after 72 hrs; format: functional, organism-based
HEK293 = assay: Cytotoxicity against human HEK293 cells at 32 ug/ml; format: cell-based
Cryptococcus neoformans [2] = assay: Antimicrobial activity against Cryptococcus neoformans var. grubii ATCC 208821 assessed as inhibition of fungal growth at 4 ug/ml incubated for 24 hrs by resazurin dye based assay; format: functional; parameters: scale not given: the % may be the effect or the level left; conditions: dose 4 µg/ml
Haemonchus contortus [3] = assay: Anti-helmintic activity against fourth stage L4 Haemonchus contortus larvae assessed as induction of abnormal morphological phenotype at >= 50 uM after 7 days; format: functional, organism-based; conditions: dose microM >=50, time 7.0 day
Haemonchus contortus [4] = assay: Anti-helmintic activity against fourth stage L4 Haemonchus contortus larvae assessed as inhibition of larvae motility at 100 uM after 72 hrs; format: functional; parameters: scale not given: the % may be the effect or the level left
Candida albicans [5] = assay: Antimicrobial activity against Candida albicans ATCC 90028 assessed as inhibition of fungal growth at 8 ug/ml incubated for 24 hrs by resazurin dye based assay; format: functional; parameters: scale not given: the % may be the effect or the level left; conditions: dose 8 µg/ml
Candida albicans [6] = assay: Antimicrobial activity against Candida albicans ATCC 90028 assessed as inhibition of fungal growth at 32 ug/ml incubated for 24 hrs by resazurin dye based assay; format: functional, organism-based; conditions: dose 32.0 µg/ml
Escherichia coli = assay: Antimicrobial activity against Escherichia coli ATCC 25922 assessed as inhibition of bacterial growth at 32 ug/ml incubated for 18 hrs by resazurin dye based assay; format: functional, organism-based; conditions: dose 32.0 µg/ml
Acinetobacter baumannii = assay: Antimicrobial activity against Acinetobacter baumannii ATCC 19606 assessed as inhibition of bacterial growth at 32 ug/ml incubated for 18 hrs by resazurin dye based assay; format: functional, organism-based; conditions: ATCC 19606 = CIP 70.34 = JCM 6841, dose 32.0 µg/ml
Klebsiella pneumoniae = assay: Antimicrobial activity against Klebsiella pneumoniae ATCC 700603 assessed as inhibition of bacterial growth at 32 ug/ml incubated for 18 hrs by resazurin dye based assay; format: functional, organism-based; conditions: dose 32.0 µg/ml
Pseudomonas aeruginosa = assay: Antimicrobial activity against Pseudomonas aeruginosa ATCC 27853 assessed as inhibition of bacterial growth at 32 ug/ml incubated for 18 hrs by resazurin dye based assay; format: functional, organism-based; conditions: dose 32.0 µg/ml
Staphylococcus aureus [7] = assay: Antimicrobial activity against methicillin-resistant Staphylococcus aureus ATCC 43300 assessed as inhibition of bacterial growth at 32 ug/ml incubated for 18 hrs by resazurin dye based assay; format: functional, organism-based; conditions: dose 32.0 µg/ml
Cryptococcus neoformans [8] = assay: Antimicrobial activity against Cryptococcus neoformans var. grubii ATCC 208821 assessed as inhibition of fungal growth at 32 ug/ml incubated for 24 hrs by resazurin dye based assay; format: functional; conditions: dose 32.0 µg/ml
[9] = Hemolytic activity against RBC (unknown origin) at 32 ug/ml; format: ADME, cell-based, Erythrocyte; conditions: red blood cells (erythrocytes), at 32 µg/mL, read-out: Activity
Cryptococcus neoformans [10] = assay: Antimicrobial activity against Cryptococcus neoformans var. grubii ATCC 208821 assessed as inhibition of fungal growth at 8 ug/ml incubated for 24 hrs by resazurin dye based assay; format: functional; parameters: scale not given: the % may be the effect or the level left; conditions: dose 8 µg/ml
Staphylococcus aureus [11] = assay: Antimicrobial activity against methicillin-resistant Staphylococcus aureus ATCC 43300 assessed as inhibition of bacterial growth at < 0.2 ug/ml incubated for 18 hrs by resazurin dye based assay; format: functional; parameters: scale not given: the % may be the effect or the level left; conditions: dose microg/ml <0.2

Q: For `COc1ccc(-c2oc3cc(OC4OC(C)C(O)C(OC(C)=O)C4O)cc(O)c3c(=O)c2OC2OC(C)C(O)C(O)C2O)cc1O` (configuration not stated), which Activity (Haemonchus contortus [1]) is on record?
A: inactive

Q: With `CC1=C(O)C(=O)c2c(O)ccc(O)c2C1=O` as the molecule, how does the Activity (HEK293; dose 32 µg/ml) read?
A: Non-Toxic

Q: What about the Activity (Cryptococcus neoformans [2]) of the same molecule?
A: 100%

Q: What about the Activity (Haemonchus contortus [3]) of the same molecule?
A: Active

Q: And the Activity (Haemonchus contortus [4])?
A: 27%

Q: And the Activity (Candida albicans [5])?
A: 98%

Q: What about the Activity (Haemonchus contortus [1]) of the same molecule?
A: inactive

Q: For `CC1=C(O)C(=O)c2c(OC3OC(CO)C(O)C(O)C3O)ccc(O)c2C1=O` (configuration not stated), which Activity (Candida albicans [6]) is on record?
A: Active

Q: Which Activity (Haemonchus contortus [1]) does the source give for `COc1ccc(-c2oc3cc(OC4OC(C)C(O)C(O)C4O)cc(O)c3c(=O)c2OC2OC(C)C(O)C(O)C2O)cc1O` (configuration not stated) here?
A: inactive

Q: For `O=c1c(O[C@@H]2O[C@H](CO)[C@@H](O)[C@H](O)[C@H]2O)c(-c2ccc(O)c(O)c2)oc2cc(O)cc(O)c12` [ISOQUERCETIN], which Activity (Escherichia coli) is on record?
A: Active

Q: What about the Activity (Acinetobacter baumannii) of the same molecule?
A: Active

Q: What about the Activity (Klebsiella pneumoniae) of the same molecule?
A: Active

Q: What about the Activity (Pseudomonas aeruginosa) of the same molecule?
A: Active

Q: And the Activity (Staphylococcus aureus [7])?
A: Active

Q: What about the Activity (Candida albicans [6]) of the same molecule?
A: inactive

Q: And the Activity (Cryptococcus neoformans [8])?
A: Active

Q: And the hemolysis at 32 ug/ml [9]?
A: > 10%

Q: Which Activity (HEK293; at 32 µg/mL) does the source give for `CC1=CC(=O)c2c(O)cccc2C1=O` [PLUMBAGIN] here?
A: 92%

Q: And the Activity (Cryptococcus neoformans [10])?
A: 100%

Q: And the Activity (Staphylococcus aureus [11])?
A: 96%

Q: For `O=C1CC(c2ccc(O)cc2)Oc2cc(O)c([C@@H]3O[C@H](CO)[C@@H](O)[C@H](O)[C@H]3O)c(O)c21` (some centres not stated), which Activity (Escherichia coli) is on record?
A: Active

Q: And the Activity (Acinetobacter baumannii)?
A: Active

Q: What about the Activity (Klebsiella pneumoniae) of the same molecule?
A: Active

Q: What about the Activity (Pseudomonas aeruginosa) of the same molecule?
A: Active

Q: And the Activity (Staphylococcus aureus [7])?
A: Active

Q: What about the Activity (Candida albicans [6]) of the same molecule?
A: Active

Q: What about the Activity (Cryptococcus neoformans [8]) of the same molecule?
A: Active
